Results taken from patent US20130023555A1, “KINASE INHIBITOR WITH IMPROVED SOLUBILITY PROFILE” (Abbott Laboratories, priority 2011, published 2013).
Values after ≈ are worked out from the molar mass of the structure shown.

What was measured:
[1] = Determination of Thermodynamic Solubility; assay type: physicochemical; conditions: for solubility: thermodynamic from solid
Protocol: Aqueous pH 7.4 and PEG 300 samples were tested at 25° C. Excess amount of the bulk drug was weighed out and mixed with an aliquot of target media in a clear glass vial (n=3/solvent). The vial was capped, wrapped with aluminum foil, and tumbled in a 25° C. water bath. When equilibration was completed, the samples were removed from the water bath and the final pH was measured, if applicable. The samples were centrifuged at 25° C. at 3000 rpm for 20 minutes. The supernatant was filtered through 4 mm 0.45 μm PTFE syringe filters. The filtrate was assayed after appropriate dilution (no dilution required for aqueous samples). The concentration of the sample was calculated against a calibration curve for the compound.
Solubility in pH 7.4 buffer was carried out as described above, except samples were not centrifuged before filtration. All other experimental steps were the same. PEG 300 and PEG 400 solubility were done at ambient temperature. Excess amount of the bulk drug was weighed out and mixed with an aliquot of target media in a clear glass vial with a small stir bar (n=3). The vials were placed on the stirrer at ˜500 rpm and allowed to equilibrate over the weekend. Samples were filtered through 13 mm 0.45 μm GHP syringe filters. The filtrate was assayed after appropriate dilutions, and concentrations determined against a calibration curve for the compound.

CYP3A4 = target: T1, CYP3A4 (Homo sapiens, UniProt P08684); assay: CYP 3A4 Assay (Luc, luminescence, human liver microsomes); assay type: in vitro ADME; conditions: human liver microsomes 0.4 mg/mL, substrate LUC-LIPA
T1 construct: The incubations consisted of human liver microsomal protein at 0.4 mg/ml; from tissue; host or cells: human liver microsomes
Protocol: Each assay was preformed in ½ well plates. Test compounds were examined at six concentrations in DMSO that were serial diluted to: 2, 0.6, 0.2, 0.07, 0.02, and 0.007 mM (from left to right) and at 100×; 0.5 ul of these dilutions were added to two empty assay plates (resulting in final assay concentrations of 20, 6, 2, 0.7, 0.2, and 0.07 uM. The control and vehicle were added to the plate at 100× with the same dilution scheme.
The incubations consisted of human liver microsomal protein at 0.4 mg/ml in 100 mM KPO4 buffer, 125 uM NADPH and Regeneration mix in phosphate buffer at pH 7.4.
CYP3A4 requires a pre-incubation using the following recipe:
• CYP3A4—5 μM LUC-LIPA in 100 mM phosphate buffer pH 7.4 • Assay Procedure for CYP3A4: • 1. 40 uL of the Pre-incubation Mixture was added to all wells of the assay plates. • 2. Plates were pre-incubated for 10 minutes at 37° C., with shaking or rocking. (No pre-read is necessary for the luminescence assays CYP2C9 and CYP3A4). • 3. 10 μL of Substrate Solution was added to all wells of the assay plates. • 4. Plates were incubated for an additional 25 minutes at 37° C., with shaking or rocking. • 5. added 50 μl of stop/developer from respective kits, and incubated for 20 minutes to 2 hours with shaking at room temperature prior to reading. […]

CLND Solubility Assay = assay type: physicochemical; conditions: aqueous buffer, kinetic from dmso stock; 35 μM compound in 10 mM phosphate buffer, pH 7.2
Protocol: Chemiluminescent nitrogen detection (CLND) method oxidized the analyte to nitrogen oxide that reacted with ozone to provide a photon of light and was a measure of how much compound was in solution. Compounds must contain nitrogens for this experiment. Nitrogen impurities present in the compound will cause falsely high results. • 1. Compound concentration tested was 35 μM in 10 mM phosphate buffer, 7.2. • 2. Compounds were tested in triplicate. • 3. Compound concentration was determined by comparing readings to a caffeine standard curve. One standard curve was run before and after every test plate. For 3 test plates, four standard curves were generated.
Experimental Procedure: • 1. 5 μl of 5 mM test compound in DMSO was added to three adjacent wells in a plate. • 2. 695 μl of 10 mM phosphate buffer, pH 7.2, was added to each well. • 3. The plates were sealed. • 4. The plates were allowed to sonicate for 1 hour. • 5. The plates were shook on a plate orbital shaker for up to 6 hours. • 6. The plates were spinned at 5000 rpm (6000×G) overnight. • 7. Standard curves were prepared by adding 5 μl of stock solutions to wells according to Caffeine Concentrations for Standard Curve table below. • 8. Buffer (10 mM phosphate buffer, pH 7.2, 695 μl) was added. • 9. The plates were sealed. • 10. The plates were loaded onto a TOC/CLND. • 11. The results were analyzed after the run was completed.
The solubility was determined by comparing the reading generated by analysis of the sample to the standard curve. The value was then divided by the number of nitrogens contained in the compound. Corrections for impurities during the synthesis were included in the number of nitrogens. The resulting value was the reported solubility.

cKIT = target: T2, cKIT (Homo sapiens, UniProt P10721); assay: HTRF in vitro kinase assay, cKIT; assay type: biochemical; conditions: 1 mM ATP
T2 construct: GST
Protocol: To determine the activity of the various kinases, a homogenous time-resolved fluorescence (HTRF) in vitro kinase assay was used. (Mathis, G., HTRF(R) Technology. J Biomol Screen, 1999. 4(6): p. 309-314; Alfred J. Kolb, Paul V. Kaplita, David J. Hayes, Young-Whan Park, Christine Pernell, John S. Major and Gerard Mathis, Drug Discovery Today, 1998, 3, 333-342.)
For example for KDR, cKIT, FLT1, CSF1R and FTL3, purified enzyme was mixed with 0.5 μM N-biotinylated substrate (Biotin-Ahx-[…]-amide (SEQ. ID. 1)), various concentrations of inhibitor in reaction buffer (50 mM HEPES, pH 7.1, 10 mM MgCl2, 2 mM MnCl2, 0.1% BSA and 1 mM DTT, 40 μL final volume), ATP (1 mM final conc.) in a black 384-well plate. After 60 minutes incubation at room temperature, the reaction was quenched by addition of a buffered EDTA solution (final approximate concentrations: 30 mM EDTA, 0.1% BSA, 0.1% Triton X-100 and 0.24M KF) and a solution of revelation agents (to give 0.084 ng/well streptavidin-XL-665 (Cis-Bio) and 6.5 ng/well antiphsophotyrosine mAb PT66-K Europium kryptate) was added to the reaction mixture. The quenched reaction was allowed to stand at room temperature for 3 hours and was then read in a time-resolved fluorescence detector (InVision, Perkin-Elmer) at 620 nm and 665 nm sequentially with excitation. The ratio between the signal of 620 nm and 665 nm was used in the calculation of the IC50.

T2 sequence (P10721 544-976 limits assumed): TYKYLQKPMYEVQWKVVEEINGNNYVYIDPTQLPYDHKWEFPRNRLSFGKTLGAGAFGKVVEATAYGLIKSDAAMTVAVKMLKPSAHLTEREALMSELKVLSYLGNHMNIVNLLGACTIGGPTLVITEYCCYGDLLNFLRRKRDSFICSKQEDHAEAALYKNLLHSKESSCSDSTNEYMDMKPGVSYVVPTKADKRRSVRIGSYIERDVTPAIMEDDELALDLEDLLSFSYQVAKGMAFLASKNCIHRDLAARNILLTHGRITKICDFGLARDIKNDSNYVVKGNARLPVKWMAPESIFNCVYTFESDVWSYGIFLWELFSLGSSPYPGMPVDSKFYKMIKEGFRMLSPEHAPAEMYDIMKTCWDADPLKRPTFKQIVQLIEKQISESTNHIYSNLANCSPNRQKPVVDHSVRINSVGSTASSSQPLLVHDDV
T1 sequence (P08684 whole entry): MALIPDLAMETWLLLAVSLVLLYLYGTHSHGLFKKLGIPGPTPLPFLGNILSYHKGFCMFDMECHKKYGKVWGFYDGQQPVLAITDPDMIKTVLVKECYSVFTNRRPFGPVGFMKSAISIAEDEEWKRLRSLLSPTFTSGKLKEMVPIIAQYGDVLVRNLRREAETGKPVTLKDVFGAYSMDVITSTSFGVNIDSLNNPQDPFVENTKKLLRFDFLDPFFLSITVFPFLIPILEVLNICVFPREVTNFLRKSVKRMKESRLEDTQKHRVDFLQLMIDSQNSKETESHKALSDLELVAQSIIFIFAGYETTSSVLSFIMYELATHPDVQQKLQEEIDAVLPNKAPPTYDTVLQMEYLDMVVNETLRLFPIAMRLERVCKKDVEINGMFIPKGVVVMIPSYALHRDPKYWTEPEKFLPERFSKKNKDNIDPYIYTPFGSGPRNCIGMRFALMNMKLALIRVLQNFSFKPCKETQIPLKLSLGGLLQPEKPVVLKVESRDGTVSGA

solubility ([1]; PEG 300, 25 °C, organic solvent or mixture, PEG 300, Example 2 at 25° C., Example 1 at ambient temperature, read-out: Solubility (PEG300)): 132 mg/mL (≈ 247 mM)
Solubility (PEG300) ([1]; PEG 300, Example 2 at 25° C., Example 1 at ambient temperature): >125 mg/mL
solubility ([1]; PEG 400, organic solvent or mixture, PEG 400, ambient temperature, read-out: Solubility PEG 400): 124 mg/mL (≈ 232 mM)
solubility ([1]; phosphate buffer, 25 °C, pH 7.4, aqueous buffer, 50 mM phosphate pH 7.4 buffer, 25° C., read-out: Solubility pH 7.4): 0.0171 mg/mL (≈ 0.032 mM)
IC50 (CYP3A4): > 20 µM
solubility (CLND Solubility Assay): 70.8 µM (≈ 37.8 µg/mL)
IC50 (cKIT): 0.035 µM
SMILES: CCN(CC)CCCNC(=O)c1cnc(N)c2c(-c3ccc(NC(=O)Nc4cccc(F)c4)cc3)csc12 [Example 1, 4-amino-N-[3-(diethylamino)propyl]-3-(4-{[(3-fluorophenyl)carbamoyl]amino}phenyl)thieno[3,2-c]pyridine-7-carboxamide]
